Measurements as given in PMC7217877, “N-AS-triggered SPMs are direct regulators of microglia in a model of Alzheimer’s disease” (Nature Communications, 2020).
“And” between values parts separate entries of the source, which are not always exact repeats. Equal entries are not always repeated.

How the values were obtained:
APP/PS1 mice [1] = assay: N-AS level in microglia and neuron isolated from treated mice (LC-MS/MS, Fig 4b); assay type: in vivo, mouse; settings: N-AS 30 mg kg^-1 daily s.c. 8 weeks, individual values
Method: Reactions were quenched by adding equal volume of cold methanol. A 100 μl aliquot of the reaction mixture was mixed with 30 μl of distilled water containing 5 ng ml^−1 of furosemide (internal standard) for 1 min and vigorously mixed with […] of ethyl acetate for 20 min. After centrifugation at 16,000×g for 10 min, the mixtures were kept for 2 h for freezing aqueous phase. The upper ethyl acetate layer was transferred to a clean tube and evaporated to dryness under a gentle stream of nitrogen. Then, the dried extract was reconstituted in 100 µl of mobile phase and 10 µl aliquot of the solution was injected into an Agilent 6470 Triple Quad LC–MS/MS system (Agilent, Wilmington, DE) coupled with an Agilent 1260 HPLC system. […] Quantification was carried out using multiple reaction monitoring (MRM) at m/z 340.3→263.3 for N-AS and m/z 328.9→284.8 for furosemide (internal standard) in negative ionization mode and collision energy of 20 eV. […]
Adult neurons and microglia were isolated from the mice brain as previously described. […] The purity of the fractionated neurons and microglia were acutely confirmed by neuronal (NeuN, mouse, 1:200, Millipore, MAB377) and microglial (Iba1, rabbit, 1:1000, Wako, 019-19941) markers and the isolated neurons and microglia were acutely analyzed for the acetylation assay and lipid mediators metabololipidomics. […]

APP/PS1 mice [2] = assay: Imaris-based morphology of microglia (Supplementary Fig 5b; Additional Fig 2); assay type: in vivo, mouse
Method: Thioflavin S (Sigma-Aldrich) staining was carried out according to previously described procedures. We used 6E10 (mouse, 1:100, Signet, SIG39300), anti-20G10 (mouse, 1:1000, provided by D. R. Howlett, GlaxoSmithKline, Harlow, Essex, UK) for Aβ42, anti-G30 (rabbit, 1:1000, provided by D. R. Howlett) for Aβ40, SMA (mouse, 1:400, Sigma-Aldrich, A2547), AT8 (mouse, 1:500, Thermo Fisher Scientific, MN1020), Caspase-3 (mouse, 1:200, Novus Biologicals, NB100-56708), ac-S565 (rabbit, 1:100), COX2 (mouse, 1:250, Thermo Fisher Scientific, 35-8200), Iba1 (rabbit, 1:500, Wako, 019-19941 and goat, Abcam, ab5076), NeuN (mouse, 1:500, Millipore, MAB177), GFAP (rabbit, 1:500, Dako, N1506 and chicken, 1:500, Abcam, ab4674), and Lamp1 (mouse, 1:200, Abcam, ab24170). The sections were analyzed with a laser-scanning confocal microscope (FV3000; Olympus) or with a BX51 microscope (Olympus). MetaMorph software (Molecular Devices) was used to quantification. Three-dimensional reconstruction of microglia was recorded and analyzed using IMARIS software (Bitplane)[11]. For the analysis of age-dependent microglial COX2^+ CX3CR1^+ cells in WT and APP/PS1 mice, COX2 (rabbit, 1:100, Abcam, ab15191) and CX3CR1 (mouse, 1:100, BioLegend, 149008) antibody were used and the images were acquired on Alexa 488 and APC Channel with performed using Operetta CLS and Analysis Software 4.5 (Perkin-Elmer). […]

`CCCCCCCCCCCCC/C=C/[C@@H](O)[C@H](CO)NC(C)=O` [N-AS, N-((2S,3R,E)-1,3-Dihydroxyoctadec-4-en-2-yl)acetamide] was tested, and the “N-AS quantification (Fig 4b)” value (APP/PS1 mice [1]; Microglia of APP/PS1 mice) was 8.217 and 7.5949 and 7.58 and 7.906 and 7.587 and 7.743, the “N-AS quantification (Fig 4b)” value (APP/PS1 mice [1]; Neuron of APP/PS1 mice) was 2.188 and 3.557 and 2.872 (3×) and 3.215 and the “morphology of non-plaque-associated microglia” value (APP/PS1 mice [2]; APP/PS1 vs N-AS-treated APP/PS1, Additional Fig. 2 of peer review file) was “did not differ between the groups”. For the same compound, the “morphology of microglia surrounding Aβ” value (APP/PS1 mice [2]; N-AS vs vehicle APP/PS1) was “phagocytic morphology (ameboid microglial morphology) was more evident”.
